According to ChEMBL document CHEMBL4422610, “HDAC as onco target: Reviewing the synthetic approaches with SAR study of their inhibitors” (Eur J Med Chem, 2018):

What was measured:
[1] = target: T1, Histone deacetylase 1 (Homo sapiens, UniProt Q13547); test: Inhibition of HDAC1 (unknown origin) using Ac-peptide as substrate preincubated for 15 mins followed by substrate addition and measured after 60 mins by fluorescence assay
[2] = tested on: Zea mays; test: Inhibition of maize HD2 at 5 uM using [3H]acetate-labelled histone as substrate by liquid scintillation counting method relative to control
[3] = target: T1, Histone deacetylase 1; test: Inhibition of human HDAC1 using fluorogenic HDAC substrate
[4] = target: Histone deacetylase 2 (Homo sapiens, UniProt Q92769); test: Inhibition of human HDAC2 using fluorogenic HDAC substrate
[5] = target: Histone deacetylase 4 (Homo sapiens, UniProt P56524); test: Inhibition of human HDAC4 using fluorogenic HDAC substrate
[6] = target: Histone deacetylase 5 (Homo sapiens, UniProt Q9UQL6); test: Inhibition of human HDAC5 using fluorogenic HDAC substrate
[7] = target: T2, Protein deacetylase HDAC6 (Homo sapiens, UniProt Q9UBN7); test: Inhibition of human HDAC6 using fluorogenic HDAC substrate
T2 sequence (Q9UBN7 whole entry): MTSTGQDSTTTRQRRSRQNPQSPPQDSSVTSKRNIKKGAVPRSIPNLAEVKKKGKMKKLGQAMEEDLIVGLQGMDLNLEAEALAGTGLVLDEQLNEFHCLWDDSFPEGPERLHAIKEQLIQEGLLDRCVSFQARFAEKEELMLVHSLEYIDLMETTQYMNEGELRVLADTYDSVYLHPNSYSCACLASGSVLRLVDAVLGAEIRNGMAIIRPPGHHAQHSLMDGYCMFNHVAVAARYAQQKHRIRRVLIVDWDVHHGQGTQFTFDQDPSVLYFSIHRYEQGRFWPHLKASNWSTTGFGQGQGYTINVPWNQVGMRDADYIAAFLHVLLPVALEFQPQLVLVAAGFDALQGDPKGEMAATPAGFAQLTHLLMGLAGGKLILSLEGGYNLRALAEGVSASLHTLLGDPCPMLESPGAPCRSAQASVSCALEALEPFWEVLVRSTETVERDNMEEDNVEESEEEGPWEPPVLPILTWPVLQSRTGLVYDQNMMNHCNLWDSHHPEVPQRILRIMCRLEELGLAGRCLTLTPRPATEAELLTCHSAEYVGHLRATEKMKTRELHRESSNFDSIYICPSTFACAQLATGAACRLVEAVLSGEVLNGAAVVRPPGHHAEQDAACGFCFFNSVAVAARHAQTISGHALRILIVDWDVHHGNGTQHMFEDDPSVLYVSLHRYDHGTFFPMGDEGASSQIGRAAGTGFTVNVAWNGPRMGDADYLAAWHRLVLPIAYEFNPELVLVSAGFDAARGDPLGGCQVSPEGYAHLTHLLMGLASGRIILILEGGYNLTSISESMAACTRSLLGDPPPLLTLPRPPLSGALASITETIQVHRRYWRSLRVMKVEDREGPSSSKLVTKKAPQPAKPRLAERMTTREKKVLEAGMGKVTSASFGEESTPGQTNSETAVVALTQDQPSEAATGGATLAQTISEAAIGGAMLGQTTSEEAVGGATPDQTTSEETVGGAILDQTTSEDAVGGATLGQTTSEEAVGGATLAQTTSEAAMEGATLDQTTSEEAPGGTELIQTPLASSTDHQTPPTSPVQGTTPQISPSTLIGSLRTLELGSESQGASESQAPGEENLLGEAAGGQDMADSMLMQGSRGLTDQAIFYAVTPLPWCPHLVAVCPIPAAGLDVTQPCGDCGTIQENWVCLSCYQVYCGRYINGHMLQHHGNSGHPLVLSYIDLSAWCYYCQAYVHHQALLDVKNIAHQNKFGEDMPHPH

[8] = target: T3, Histone deacetylase 8 (Homo sapiens, UniProt Q9BY41); test: Inhibition of human HDAC8 using fluorogenic HDAC substrate
T3 sequence (Q9BY41 whole entry): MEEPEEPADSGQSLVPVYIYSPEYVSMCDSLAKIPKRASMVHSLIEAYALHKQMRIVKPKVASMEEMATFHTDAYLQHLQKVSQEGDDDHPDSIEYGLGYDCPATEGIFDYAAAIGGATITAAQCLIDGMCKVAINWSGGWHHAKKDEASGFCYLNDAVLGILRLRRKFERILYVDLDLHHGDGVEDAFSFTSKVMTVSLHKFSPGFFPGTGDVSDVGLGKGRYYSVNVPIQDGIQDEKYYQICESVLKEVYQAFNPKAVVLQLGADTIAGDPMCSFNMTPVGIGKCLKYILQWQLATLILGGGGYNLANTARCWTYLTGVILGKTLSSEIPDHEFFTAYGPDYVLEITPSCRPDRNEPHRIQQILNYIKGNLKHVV

[9] = target: Histone deacetylase 9 (Homo sapiens, UniProt Q9UKV0); test: Inhibition of human HDAC9 using fluorogenic HDAC substrate
[10] = target: T4, Polyamine deacetylase HDAC10 (Homo sapiens, UniProt Q969S8); test: Inhibition of human HDAC10 using fluorogenic HDAC substrate
T4 sequence (Q969S8 whole entry): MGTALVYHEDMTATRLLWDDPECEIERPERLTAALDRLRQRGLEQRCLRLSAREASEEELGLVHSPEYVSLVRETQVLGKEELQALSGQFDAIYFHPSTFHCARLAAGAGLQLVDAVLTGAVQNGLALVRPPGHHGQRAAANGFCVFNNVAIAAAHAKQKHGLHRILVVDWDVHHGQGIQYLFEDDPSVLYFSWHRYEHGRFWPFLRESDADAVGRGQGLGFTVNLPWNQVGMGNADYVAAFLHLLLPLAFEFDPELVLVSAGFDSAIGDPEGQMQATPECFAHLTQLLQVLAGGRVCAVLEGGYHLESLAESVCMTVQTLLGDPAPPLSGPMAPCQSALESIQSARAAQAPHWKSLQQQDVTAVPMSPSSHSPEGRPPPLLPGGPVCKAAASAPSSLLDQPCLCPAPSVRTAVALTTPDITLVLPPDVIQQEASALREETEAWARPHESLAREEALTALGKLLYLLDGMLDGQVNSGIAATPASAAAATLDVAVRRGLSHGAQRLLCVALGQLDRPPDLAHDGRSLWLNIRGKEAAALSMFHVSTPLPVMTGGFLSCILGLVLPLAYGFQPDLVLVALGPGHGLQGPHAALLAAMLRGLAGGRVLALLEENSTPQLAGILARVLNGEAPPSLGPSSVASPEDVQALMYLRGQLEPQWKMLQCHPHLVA

[11] = target: T5, Histone deacetylase 11 (Homo sapiens, UniProt Q96DB2); test: Inhibition of human HDAC11 using fluorogenic HDAC substrate
T5 sequence (Q96DB2 whole entry): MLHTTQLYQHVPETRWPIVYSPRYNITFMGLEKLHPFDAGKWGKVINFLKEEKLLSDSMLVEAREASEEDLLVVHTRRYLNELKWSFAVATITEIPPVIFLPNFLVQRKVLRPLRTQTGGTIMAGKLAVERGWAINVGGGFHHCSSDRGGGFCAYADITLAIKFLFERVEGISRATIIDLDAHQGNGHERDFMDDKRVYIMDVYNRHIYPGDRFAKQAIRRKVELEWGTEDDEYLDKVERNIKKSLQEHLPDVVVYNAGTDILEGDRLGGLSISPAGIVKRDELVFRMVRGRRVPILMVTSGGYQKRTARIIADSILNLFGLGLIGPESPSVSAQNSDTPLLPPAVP

[12] = target: T1, Histone deacetylase 1; test: Inhibition of GST-tagged HDAC1 (unknown origin) expressed in insect cells using poly (Glu, Tyr) 4:1 as substrate measured after 15 mins in presence of [gamma-33P]ATP by Topcount method
[13] = target: T2, Protein deacetylase HDAC6; test: Inhibition of recombinant full-length human HDAC6 expressed in baculovirus expression system using FAM-RHKK(Ac)-H2 as substrate measured by electrophoretic mobility shift assay
[14] = target: T6, Histone deacetylase 3 (Homo sapiens, UniProt O15379); test: Inhibition of human HDAC3 using fluorogenic HDAC substrate
[15] = target: Histone deacetylase (HDAC1 and HDAC2) (Homo sapiens, UniProt Q13547+Q92769); format: cell-based; settings: hela
[16] = target: T6, Histone deacetylase 3; test: Inhibition of HDAC3 (unknown origin)
[17] = target: T2, Protein deacetylase HDAC6; test: Inhibition of HDAC6 (unknown origin)

T1 sequence (Q13547 whole entry): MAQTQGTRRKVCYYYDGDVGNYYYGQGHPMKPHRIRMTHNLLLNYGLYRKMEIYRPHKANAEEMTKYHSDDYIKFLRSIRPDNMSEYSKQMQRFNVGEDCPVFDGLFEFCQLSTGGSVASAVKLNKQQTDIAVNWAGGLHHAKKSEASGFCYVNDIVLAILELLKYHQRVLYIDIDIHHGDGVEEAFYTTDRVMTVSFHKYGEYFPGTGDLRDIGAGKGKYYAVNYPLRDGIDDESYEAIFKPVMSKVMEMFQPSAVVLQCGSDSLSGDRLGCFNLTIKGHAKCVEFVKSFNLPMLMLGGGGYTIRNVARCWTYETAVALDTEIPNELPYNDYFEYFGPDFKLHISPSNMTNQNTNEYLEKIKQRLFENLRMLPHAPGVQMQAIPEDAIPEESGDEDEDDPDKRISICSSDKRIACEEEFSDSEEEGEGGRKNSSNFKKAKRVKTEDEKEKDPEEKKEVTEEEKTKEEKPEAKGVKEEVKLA
Histone deacetylase 2, sequence (Q92769 whole entry): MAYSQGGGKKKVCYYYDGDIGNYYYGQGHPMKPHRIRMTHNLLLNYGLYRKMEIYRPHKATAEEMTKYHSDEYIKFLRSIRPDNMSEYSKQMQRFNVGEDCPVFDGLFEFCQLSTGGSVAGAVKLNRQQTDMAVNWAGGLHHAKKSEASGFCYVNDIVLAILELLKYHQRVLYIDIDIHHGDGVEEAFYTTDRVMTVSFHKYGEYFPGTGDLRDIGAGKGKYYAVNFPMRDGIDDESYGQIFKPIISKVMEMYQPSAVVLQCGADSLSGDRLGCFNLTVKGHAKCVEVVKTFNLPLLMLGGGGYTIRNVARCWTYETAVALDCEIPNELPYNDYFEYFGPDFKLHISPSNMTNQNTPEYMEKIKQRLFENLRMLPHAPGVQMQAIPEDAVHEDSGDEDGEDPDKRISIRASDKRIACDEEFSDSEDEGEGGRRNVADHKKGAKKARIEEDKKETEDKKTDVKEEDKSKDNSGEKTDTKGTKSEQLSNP
T6 sequence (O15379 whole entry): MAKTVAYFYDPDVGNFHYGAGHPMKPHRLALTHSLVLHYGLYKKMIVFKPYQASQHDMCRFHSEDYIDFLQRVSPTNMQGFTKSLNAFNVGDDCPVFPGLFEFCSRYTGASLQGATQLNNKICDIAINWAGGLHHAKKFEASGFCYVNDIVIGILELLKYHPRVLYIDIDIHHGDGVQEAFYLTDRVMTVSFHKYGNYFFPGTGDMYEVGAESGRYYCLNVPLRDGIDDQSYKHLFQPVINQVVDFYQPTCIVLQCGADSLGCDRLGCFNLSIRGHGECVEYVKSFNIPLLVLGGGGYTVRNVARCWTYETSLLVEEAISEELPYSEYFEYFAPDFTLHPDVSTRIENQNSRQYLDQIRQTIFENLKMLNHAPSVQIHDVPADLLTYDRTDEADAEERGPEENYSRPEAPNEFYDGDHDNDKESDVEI
Histone deacetylase 5, sequence (Q9UQL6 whole entry): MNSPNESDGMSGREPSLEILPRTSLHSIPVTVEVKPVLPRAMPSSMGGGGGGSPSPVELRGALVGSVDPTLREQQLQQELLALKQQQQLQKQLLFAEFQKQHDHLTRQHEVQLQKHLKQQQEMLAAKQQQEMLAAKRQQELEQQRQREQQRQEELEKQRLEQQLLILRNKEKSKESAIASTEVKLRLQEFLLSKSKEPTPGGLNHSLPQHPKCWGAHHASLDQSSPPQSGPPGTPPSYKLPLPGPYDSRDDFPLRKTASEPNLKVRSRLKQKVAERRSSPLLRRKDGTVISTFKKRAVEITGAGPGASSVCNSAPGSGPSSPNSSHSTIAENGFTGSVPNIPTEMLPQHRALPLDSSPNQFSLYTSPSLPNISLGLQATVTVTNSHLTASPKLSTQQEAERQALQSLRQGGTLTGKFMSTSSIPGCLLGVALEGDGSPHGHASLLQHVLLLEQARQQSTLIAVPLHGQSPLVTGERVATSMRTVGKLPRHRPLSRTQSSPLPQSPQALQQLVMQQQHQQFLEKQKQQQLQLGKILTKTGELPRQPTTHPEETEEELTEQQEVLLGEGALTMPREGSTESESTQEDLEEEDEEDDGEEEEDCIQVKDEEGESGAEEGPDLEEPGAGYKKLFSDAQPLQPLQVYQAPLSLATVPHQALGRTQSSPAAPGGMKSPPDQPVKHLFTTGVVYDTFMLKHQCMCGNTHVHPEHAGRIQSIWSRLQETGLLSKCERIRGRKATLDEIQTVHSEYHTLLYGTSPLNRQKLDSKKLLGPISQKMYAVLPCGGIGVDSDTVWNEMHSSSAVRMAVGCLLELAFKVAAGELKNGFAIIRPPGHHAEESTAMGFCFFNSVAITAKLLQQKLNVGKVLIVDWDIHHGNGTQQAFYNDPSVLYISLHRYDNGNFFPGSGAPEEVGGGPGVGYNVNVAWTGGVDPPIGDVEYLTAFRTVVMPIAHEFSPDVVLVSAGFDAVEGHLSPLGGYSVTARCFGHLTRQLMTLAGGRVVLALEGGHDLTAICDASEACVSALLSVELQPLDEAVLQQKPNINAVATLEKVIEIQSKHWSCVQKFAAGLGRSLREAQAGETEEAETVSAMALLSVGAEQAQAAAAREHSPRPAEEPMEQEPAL
Histone deacetylase 9, sequence (Q9UKV0 whole entry): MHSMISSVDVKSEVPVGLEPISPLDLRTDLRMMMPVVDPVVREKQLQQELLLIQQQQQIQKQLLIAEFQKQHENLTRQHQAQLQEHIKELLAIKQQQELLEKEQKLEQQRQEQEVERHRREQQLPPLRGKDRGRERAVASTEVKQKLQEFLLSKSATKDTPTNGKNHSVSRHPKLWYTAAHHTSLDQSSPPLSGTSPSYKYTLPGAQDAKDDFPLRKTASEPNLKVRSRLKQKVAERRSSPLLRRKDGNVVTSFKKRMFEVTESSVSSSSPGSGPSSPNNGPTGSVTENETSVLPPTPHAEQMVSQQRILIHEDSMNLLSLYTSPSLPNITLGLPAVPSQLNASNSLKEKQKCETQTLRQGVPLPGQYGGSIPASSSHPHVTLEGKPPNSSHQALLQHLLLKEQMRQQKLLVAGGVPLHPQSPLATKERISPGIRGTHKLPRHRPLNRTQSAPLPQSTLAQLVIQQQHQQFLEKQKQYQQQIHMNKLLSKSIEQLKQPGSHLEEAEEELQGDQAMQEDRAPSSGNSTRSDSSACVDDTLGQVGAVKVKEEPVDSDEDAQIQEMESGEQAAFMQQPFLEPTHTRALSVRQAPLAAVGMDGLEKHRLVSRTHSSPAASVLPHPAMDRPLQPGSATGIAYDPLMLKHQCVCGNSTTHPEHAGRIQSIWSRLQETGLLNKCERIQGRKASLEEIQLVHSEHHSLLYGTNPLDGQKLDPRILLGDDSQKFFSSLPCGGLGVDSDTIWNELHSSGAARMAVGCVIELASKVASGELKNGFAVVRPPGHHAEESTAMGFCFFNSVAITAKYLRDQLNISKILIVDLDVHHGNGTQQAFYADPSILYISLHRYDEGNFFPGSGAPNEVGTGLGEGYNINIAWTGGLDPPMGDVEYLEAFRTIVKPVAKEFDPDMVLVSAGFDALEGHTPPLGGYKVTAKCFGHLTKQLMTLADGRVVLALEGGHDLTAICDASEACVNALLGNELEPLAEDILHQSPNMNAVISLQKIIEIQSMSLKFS
Histone deacetylase 4, sequence (P56524 whole entry): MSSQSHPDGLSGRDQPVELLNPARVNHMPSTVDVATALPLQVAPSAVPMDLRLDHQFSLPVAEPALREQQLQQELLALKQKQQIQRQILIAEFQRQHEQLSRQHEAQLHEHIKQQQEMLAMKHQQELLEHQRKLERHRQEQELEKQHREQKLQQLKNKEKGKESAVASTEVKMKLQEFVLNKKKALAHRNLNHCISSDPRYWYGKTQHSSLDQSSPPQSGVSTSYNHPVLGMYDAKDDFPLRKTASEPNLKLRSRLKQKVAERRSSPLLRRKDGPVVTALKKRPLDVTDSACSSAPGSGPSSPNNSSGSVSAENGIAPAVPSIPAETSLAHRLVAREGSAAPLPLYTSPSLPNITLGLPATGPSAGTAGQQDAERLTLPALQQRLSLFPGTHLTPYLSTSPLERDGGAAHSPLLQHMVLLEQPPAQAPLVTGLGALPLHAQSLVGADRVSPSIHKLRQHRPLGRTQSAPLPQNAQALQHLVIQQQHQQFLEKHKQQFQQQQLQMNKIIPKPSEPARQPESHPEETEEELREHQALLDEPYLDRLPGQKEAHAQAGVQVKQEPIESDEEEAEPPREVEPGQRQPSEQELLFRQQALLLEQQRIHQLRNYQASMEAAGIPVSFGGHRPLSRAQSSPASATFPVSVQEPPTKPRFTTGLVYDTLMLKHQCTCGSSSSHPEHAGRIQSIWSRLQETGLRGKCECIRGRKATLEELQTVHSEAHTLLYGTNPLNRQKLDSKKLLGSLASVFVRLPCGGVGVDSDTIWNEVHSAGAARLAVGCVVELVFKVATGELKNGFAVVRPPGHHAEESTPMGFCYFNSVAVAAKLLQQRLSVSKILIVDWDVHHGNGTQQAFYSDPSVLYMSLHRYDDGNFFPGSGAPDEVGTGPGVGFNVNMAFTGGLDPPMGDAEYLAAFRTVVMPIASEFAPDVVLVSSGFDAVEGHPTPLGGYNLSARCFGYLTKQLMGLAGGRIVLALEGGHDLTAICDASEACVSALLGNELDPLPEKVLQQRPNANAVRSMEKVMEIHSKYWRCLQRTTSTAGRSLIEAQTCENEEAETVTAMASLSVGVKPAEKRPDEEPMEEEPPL

COc1ccccc1N1C(=O)CSC1c1cccc(C(=O)NCCCCCC(=O)NO)c1 (centres undefined)
IC50 [1]: 37 nM

O=C(CCCCOc1ccccc1N1C(=O)CSC1c1cccc(Br)c1)NO (centres undefined)
IC50 [1]: 530 nM

Cn1cc(C(=O)c2ccccc2)cc1/C=C/C(=O)NN
inhibition [2]: 0.2%

O=C(NO)c1ccc(CN2c3ccccc3C3C2CCS3(=O)=O)cc1 (centres undefined)
IC50 [3]: 12000 nM
IC50 [4]: > 30000 nM
IC50 [5]: 600 nM
IC50 [6]: 400 nM
IC50 [7]: 8.2 nM
IC50 [8]: 1900 nM
IC50 [9]: 200 nM
IC50 [10]: 13000 nM
IC50 [11]: 17000 nM

O=C(/C=C/c1ccc(C2CCCN2CCc2c(-c3cccnc3)nn3ccccc23)cc1)NO (centres undefined)
IC50 [12]: 1 nM

O=C(NO)c1ccc2c(c1)CC1(CC2)CCN(Cc2ccncc2)C1=O (centres undefined)
IC50 [13]: > 500 nM

COc1ccccc1N1C(=O)CSC1c1cccc(NC(=O)CCCCCC(=O)NO)c1 (centres undefined)
IC50 [1]: 17 nM

CC(C)N1CCC2(CCc3ccc(C(=O)NO)cc3C2)C1=O (centres undefined)
IC50 [13]: > 500 nM

Cn1cc(C(=O)c2ccccc2)cc1/C=C/C(=O)NO
inhibition [2]: 86%

O=C(NO)c1ccc2c(c1)CC1(CC2)CCN(Cc2ccccc2OC(F)(F)F)C1=O (centres undefined)
IC50 [13]: 100 to 500 nM

O=C(NO)c1ccc2c(c1)CC1(CC2)CCN(Cc2ccc(OC(F)(F)F)cc2)C1=O (centres undefined)
IC50 [13]: ≤ 100 nM

O=C(NO)c1ccc2c(c1)CC1(CC2)CCN(Cc2cc(Cl)ccc2Cl)C1=O (centres undefined)
IC50 [13]: 100 to 500 nM

COc1ccccc1N1C(=O)CSC1c1cccc(C(=O)NCCCC(=O)NO)c1 (centres undefined)
IC50 [1]: 4930 nM

O=C(NO)c1ccc(Cn2c3c(c4cc(F)ccc42)CS(=O)(=O)CC3)cc1
IC50 [4]: 29000 nM
IC50 [14]: 26000 nM
IC50 [6]: 500 nM
IC50 [8]: 900 nM
IC50 [9]: 500 nM
IC50 [10]: 5900 nM

COc1cc(/C=C/C(=O)NO)ccc1OCCN(C)C(=O)c1ccccc1O
IC50 [15]: 240 nM
IC50 [16]: 380 nM
IC50 [17]: 430 nM

COc1ccccc1N1C(=O)CSC1c1cccc(NC(=O)CCC(=O)NO)c1 (centres undefined)
IC50 [1]: 350 nM

CCc1n[nH]c(CC)c1CCN1CCCC1c1ccc(/C=C/C(=O)NO)cc1 (centres undefined)
IC50 [12]: 0.8 nM

O=C(CCCCCCC(=O)Nc1ccccc1N1C(=O)CSC1c1cccc(Br)c1)NO (centres undefined)
IC50 [1]: 52 nM

CC(C)c1[nH]c2ccccc2c1C1CCCN(Cc2ccc(/C=C/C(=O)NO)cc2)C1 (centres undefined)
IC50 [12]: 6 nM
